Results: US9976141B2, “Compositions and methods for inhibiting gene expression of Hif2alpha” (Arrowhead Madison Inc., priority 2015, dated 2018)
Strand notation (5' to 3'): a small letter for the sugar, then the base; units joined by * are phosphorothioate-linked, units joined directly phosphodiester-linked; [ ] holds rarer units or linkages, { } end groups; capitals alone tell only the bases. {Alk-C6-SMPT-C6} = Alk-C6-SMPT-C6 linker modification, as named by the publication; [invdT] = inverted (3'-3') thymidine; e = 2'-O-(2-methoxyethyl) (MOE); m = 2'-O-methyl; f = 2'-fluoro

Tested on: human (tumor) Hif2α (EPAS1) mRNA
Experiment: Hif2α knockdown in orthotopic RCC tumor bearing mice, single injection of RNAi trigger-delivery polymer conjugate, RT-qPCR (Table 7)
Assay type: in vivo
Settings: RNAi trigger 50 μg, polymer 064 125 μg; single tail vein injection; relative to isotonic glucose
Method in brief: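 A single intravenous dose of Hif2α RNAi trigger–delivery polymer conjugate, or isotonic glucose vehicle, was given to nude mice with subcapsular A498-SEAP renal tumours (about 5–6 weeks old). At the indicated time, tumour RNA was assayed by biplex TaqMan qPCR against CycA, and relative expression was calculated by ΔΔCT versus vehicle.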

AD03258 (antisense AUUCAUGAAAUCGUUACGUUG; sense ACGUAACGAUUUCAUGAAUT; Hif2alpha RNAi agent antisense strand; modified_base 2,8,10,14 /mod_base = “2′-deoxy-2′-fluoro corresponding nucleoside”; modified_base 1,3,4,5,6,7,9,11,12,13,15,16,17,18,19,20,21 /mod_base = “2′-O-methyl corresponding nucleoside”; modified_base 2,3,20,21 /mod_base = “5′-phosphorothioate corresponding nucleotide”; Hif2alpha RNAi agent sense strand; modified_base 7,8,9 /mod_base = “2′-deoxy-2′-fluoro corresponding nucleoside”; modified_base 1,2,3,4,5,6,10,11,12,13,14,15,16,17,18,19 /mod_base = “2′-O-methyl corresponding nucleoside”; modified_base 20 /mod_base = “3′-3′-linked nucleotide”; modi)
Relative Expression day 4 (Hif2α mRNA in kidney tumor): 0.137

AD03259 (antisense AUUCAUGAAAUCGUUACGUTG; sense ACGUAACGAUUUCAUGAATT; Hif2alpha RNAi agent antisense strand; modified_base 2,8,10,14 /mod_base = “2′-deoxy-2′-fluoro corresponding nucleoside”; modified_base 1,3,4,5,6,7,9,11,12,13,15,16,17,18,19 /mod_base = “2′-O-methyl corresponding nucleoside”; modified_base 20,21 /mod_base = “2′-MOE nucleotide”; modified_base 2,3,20,21 /mod_base = “5′-phosphorothioate corresponding nucleotide”; Hif2alpha RNAi agent sense strand; modified_base 7,8,9 /mod_base = “2′-deoxy-2′-fluoro corresponding nucleoside”; modified_base 1,2,3,4,5,6,10,11,12,13,14,15,16,17 /mod_base = “2′-O-methyl corresponding nucleoside”; modified_base 20 /m)
Relative Expression day 4 (Hif2α mRNA in kidney tumor): 0.179

AD03260 (antisense AUUCAUGAAAUCGUUACGUUG; sense ACGUAACGAUUUCAUGAATT; Hif2alpha RNAi agent antisense strand; modified_base 2,8,10,14 /mod_base = “2′-deoxy-2′-fluoro corresponding nucleoside”; modified_base 1,3,4,5,6,7,9,11,12,13,15,16,17,18,19,20,21 /mod_base = “2′-O-methyl corresponding nucleoside”; modified_base 2,3,20,21 /mod_base = “5′-phosphorothioate corresponding nucleotide”; Hif2alpha RNAi agent sense strand; modified_base 7,8,9 /mod_base = “2′-deoxy-2′-fluoro corresponding nucleoside”; modified_base 1,2,3,4,5,6,10,11,12,13,14,15,16,17 /mod_base = “2′-O-methyl corresponding nucleoside”; modified_base 20 /mod_base = “3′-3′-linked nucleotide”; modified_b)
Relative Expression day 4 (Hif2α mRNA in kidney tumor): 0.175

AD03261 (antisense mA*fU*mUmCmAmUmGfAmAfAmUmCmGfUmUmAmCmGmU*mU*mG; sense ACGUAACGAUUUCAUGAAT; siRNA; sense: sugars from the 5' end e2 m4 f3 m8 e2, [invdT] at 3' end, linkages s1 o18 (s phosphorothioate, o phosphodiester), 5' {Alk-C6-SMPT-C6}, methylation of C not given here; further chemistry not fully specified)
Relative Expression day 4 (Hif2α mRNA in kidney tumor): 0.177

AD03262 (antisense AUUCAUGAAAUCGUUACGUUG; sense ACGUAACGAUUUCAUGAAUT; Hif2alpha RNAi agent antisense strand; modified_base 2,8,10,14 /mod_base = “2′-deoxy-2′-fluoro corresponding nucleoside”; modified_base 1,3,4,5,6,7,9,11,12,13,15,16,17,18,19,20,21 /mod_base = “2′-O-methyl corresponding nucleoside”; modified_base 2,3,20,21 /mod_base = “5′-phosphorothioate corresponding nucleotide”; Hif2alpha RNAi agent sense strand; modified_base 7,8,9 /mod_base = “2′-deoxy-2′-fluoro corresponding nucleoside”; modified_base 1,2,3,4,5,6,10,11,12,13,14,15,16,17,18,19 /mod_base = “2′-O-methyl corresponding nucleoside”; modified_base 20 /mod_base = “3′-3′-linked nucleotide”; modi)
Relative Expression day 4 (Hif2α mRNA in kidney tumor): 0.197

AD03263 (antisense AUUCAUGAAAUCGUUACGUUG; sense ACGUAACGAUUUCAUGAAUN; Hif2alpha RNAi agent antisense strand; modified_base 2,8,10,14 /mod_base = “2′-deoxy-2′-fluoro corresponding nucleoside”; modified_base 1,3,4,5,6,7,9,11,12,13,15,16,17,18,19,20,21 /mod_base = “2′-O-methyl corresponding nucleoside”; modified_base 2,3,20,21 /mod_base = “5′-phosphorothioate corresponding nucleotide”; Hif2alpha RNAi agent sense strand; modified_base 7,8,9 /mod_base = “2′-deoxy-2′-fluoro corresponding nucleoside”; modified_base 1,2,3,4,5,6,10,11,12,13,14,15,16,17,18,19 /mod_base = “2′-O-methyl corresponding nucleoside”; modified_base 20 /mod_base = “3′-3′-linked abasic site”; mod)
Relative Expression day 4 (Hif2α mRNA in kidney tumor): 0.134

AD03264 (antisense UUUCAUGAAAUCGUUACGUUG; sense ACGUAACGAUUUCAUGAAAT; Hif2alpha RNAi agent antisense strand; modified_base 2,3,8,10,14 /mod_base = “2′-deoxy-2′-fluoro corresponding nucleoside”; modified_base 1,4,5,6,7,9,11,12,13,15,16,17,18,19,20,21 /mod_base = “2′-O-methyl corresponding nucleoside”; modified_base 2,3,20,21 /mod_base = “5′-phosphorothioate corresponding nucleotide”; Hif2alpha RNAi agent sense strand; modified_base 7,8,9 /mod_base = “2′-deoxy-2′-fluoro corresponding nucleoside”; modified_base 1,2,3,4,5,6,10,11,12,13,14,15,16,17,18,19 /mod_base = “2′-O-methyl corresponding nucleoside”; modified_base 20 /mod_base = “3′-3′-linked nucleotide”; modi)
Relative Expression day 4 (Hif2α mRNA in kidney tumor): 0.264
